# Source: US20140322227A1, “PEPTIDES FOR TREATMENT OF BONE DEFICIENCY AND AUTOIMMUNE DISORDERS” (H. LEE MOFFITT CANCER CENTER & RESEARCH INSTITUTE, INC., priority 2013, published 2014)
# Numbered stars: 1 amine (or outer) side, 2 acyl side, 3 side chain; on linkers, the order of the positions; unused ones are H or OH. Bridge positions count the residues as written; N and C are the ends. Square brackets hold non-standard residues; d marks the D form. Peptide text beside a SMILES is read from it. * marks the point of attachment. dProlinol(O-CH2CO) = O=C(COC[C@H]1CCCN1[*:1])[*:2]; N(2-Aminoethyl)Gly = O=C(CN(CCN[*:3])[*:1])[*:2]; Nle = CCCC[C@H](N)C(=O)O; Ms = CS(=O)(=O)*
# Legend:
# [1] = Stability of MTI-101 in plasma (rat); format: in vitro ADME
# [2] = tested on: RAW 264.7 cells; assay: Annexin V flow cytometry cell death assay in RAW 264.7 cells; format: cell-based, murine
# Protocol: FIGS. 5A-5D show the effect of a cyclic HYD1 peptide (MTI-101) on RAW 264.7 cells (FIGS. 5A and 5B) and on RAW 264.7 cell-differentiated osteoclasts (FIGS. 5C and 5D). RAW 264.7 cells were treated with 6.25 to 50 μM MTI-101 and at the end of 24 hrs the cells were scrapped and spun down. After a single wash the cells were stained with Annexin V-FITC dye. The resulting Annexin V positivity was determined using Calibur Flow cytometry. RAW 264.7 cells were treated with 6.25 to 50 μM and incubated for 72 hrs. At the end of the incubation 2 mg/ml of 3-(4,5-dimethythiazol-2-yl)-2,5-diphenyl tetrazolium bromide (MTT). After 4 hours incubation, the resulting formazan product was solubilized by addition of DMSO and the resulting color was measured by a plate reader. […] For quantification, the cells in each treated well were manually counted using a light microscope (FIG. 5C). […]
# FIGS. 6A-6C show the effect of cyclic peptide (MTI-101) on RAW 264.7 cells and on RAW 264.7 cell-differentiated osteoclasts. […] The resulting Annexin V positivity was determined using Calibur Flow cytometry. […] After 4 hours incubation the resulting formazan product was solubilized by addition of DMSO and the resulting color was measured by a plate reader. […] For quantification, the cells in each treated well were manually counted using a light microscope. […]
# [3] = Stability of MTI-101 in plasma (dog); format: in vitro ADME
# [4] = Stability of MTI-101 in plasma (mouse); format: in vitro ADME; conditions: room temperature
# [5] = reported; independent of the direct effect on the myeloma cell; cited from earlier work
# [6] = tested on: tumor bearing tibias; assay: Bone density (BV/TV) of tumor bearing tibias by CT scanning in myeloma model; format: in vivo; conditions: compared to vehicle control (VC) treated tumor bearing mice
# Protocol: FIG. 43. MTI-101 treated mice show increased trabecular bone density compared to tumor-bearing vehicle control-treated mice (VC). The same 10 tibia bones imaged by Faxitron in FIG. 43 were imaged with a Micro PET/SPECT/CT (Siemens Inveon). After imaging, the bones were reconstructed using COBRA (Constraint Based Reconstruction and Analysis) and analyzed with the Siemens Inveon workstation. 30 separate longitudinal images for each tibia were measured for both bone volume and total volume with the indicated parameters (2 mm below growth plate to 2 mm above junction with fibula). All 30 images were combined and the tibia were analyzed by bone volume/total volume (BV/TV). Images of the control group were compared to both MTI-101 and bortezomib treated mice. […] The same bones that were assayed for tumor volume in FIG. 43 were used to determine bone density by CT scanning.
# [7] = 4 degrees Celsius, read-out: Stability - 24 Hour 4 Degrees Celsius
# [8] = room temperature, read-out: Stability - 24 Hour Room Temperature
Structure (SMILES),"remaining at 24 h [1, 7]","remaining at 24 h [1, 8]","cell death (Annexin V positivity) ([2]; multiple dosing 6.25 to 50 μM on days 1, 3 and 5, read day 7)","cell death (Annexin V positivity) ([2]; single treatment 6.25 to 50 μM, 24 hrs)","remaining at 24 h [3, 7]","remaining at 24 h [3, 8]",remaining at 24 h [4],bone anabolic effects [5],"bone density (bone volume/total volume, BV/TV) [6]"
CCCC[C@@H]1NC(=O)CN(S(C)(=O)=O)CCNC(=O)[C@H](CCCCN)NC(=O)[C@H](CC(C)C)NC(=O)[C@H](CCCCN)NC(=O)[C@H](CC(C)C)NC(=O)[C@H](CCCCN)NC(=O)COC[C@H]2CCCN2C(=O)[C@H](Cc2c[nH]c3ccccc23)NC(=O)[C@H](C)NC(=O)[C@H](C(C)C)NC(=O)[C@H](C(C)C)NC1=O [MTI-101] (Ms-[N(2-Aminoethyl)Gly][Nle]VVAW[dProlinol(O-CH2CO)]KLKLK; lactam 1-C),94%,90%,nor did it induce cell death,nor did it induce cell death,83%,67%,85%,,
CC(C)C[C@H](NC(=O)[C@H](CCc1ccccc1)NC(=O)CN1CCOCC1)C(=O)N[C@@H](Cc1ccccc1)C(=O)N[C@@H](CC(C)C)C(=O)[C@@]1(C)CO1 [carfilzomib],,,,,,,,induce bone anabolic effects,
CC(C)C[C@H](NC(=O)[C@H](Cc1ccccc1)NC(=O)c1cnccn1)B(O)O [bortezomib],,,,,,,,induce bone anabolic effects,increased bone density
